The subject of this test is HCV genotype-1a variant with glutamine 30 changed to glutamate in the NS5A protein. The test is classed as cell-based. As to conditions: test compound titrated with BMS-790052 fixed at 200 nM; genotype 1a Q30E replicon. An outline of the steps: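 Synergy was assessed by combining several fixed amounts of an NS5A-targeting compound with a titration of the second compound of interest.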
(Replicon systems follow genome replication, usually without infectious particles.)

In the case of `CC(=O)N(C)C1(C(=O)N[C@H](c2nc(-c3ccc(-c4ccc(-c5c[nH]c([C@@H](NC(=O)C6(N(C)C(C)=O)CC6)C(C)(C)C)n5)cc4)cc3)c[nH]2)C(C)(C)C)CC1.O=C(O)C(F)(F)F.O=C(O)C(F)(F)F` [Compound L-11], the “Fold-Synergistic 1a (Q30E)” value is reported as above 100 fold. As to `CC(=O)N(C)C1(C(=O)N[C@H](c2nc(-c3ccc(-c4ccc(-c5c[nH]c([C@@H](NC(=O)C6(N(C)C(C)=O)CCC6)C(C)(C)C)n5)cc4)cc3)c[nH]2)C(C)(C)C)CCC1.O=C(O)C(F)(F)F.O=C(O)C(F)(F)F` [Compound L-12], the “Fold-Synergistic 1a (Q30E)” value is above 100 fold. As to `CN(C(=O)OC(C)(C)C)C1(C(=O)N[C@H](c2nc(-c3ccc(-c4ccc(-c5c[nH]c([C@@H](NC(=O)C6(N(C)C(=O)OC(C)(C)C)CC6)C(C)(C)C)n5)cc4)cc3)c[nH]2)C(C)(C)C)CC1.O=C(O)C(F)(F)F.O=C(O)C(F)(F)F` [Compound L-13], the “Fold-Synergistic 1a (Q30E)” value is listed as above 100 fold. On to `CN(C(=O)OC(C)(C)C)C1(C(=O)N[C@H](c2nc(-c3ccc(-c4ccc(-c5c[nH]c([C@@H](NC(=O)C6(N(C)C(=O)OC(C)(C)C)CCC6)C(C)(C)C)n5)cc4)cc3)c[nH]2)C(C)(C)C)CCC1.O=C(O)C(F)(F)F.O=C(O)C(F)(F)F` [Compound L-14], for which the “Fold-Synergistic 1a (Q30E)” value was above 100 fold. In the case of `CC(C)(C)OC(=O)N1CCCC[C@@H]1C(=O)N[C@H](c1nc(-c2ccc(-c3ccc(-c4c[nH]c([C@@H](NC(=O)[C@H]5CCCCN5C(=O)OC(C)(C)C)C(C)(C)C)n4)cc3)cc2)c[nH]1)C(C)(C)C` [Compound L-16] it was above 100 fold; in that of `CC(C)(C)OC(=O)N1CCCC[C@H]1C(=O)N[C@H](c1nc(-c2ccc(-c3ccc(-c4c[nH]c([C@@H](NC(=O)[C@@H]5CCCCN5C(=O)OC(C)(C)C)C(C)(C)C)n4)cc3)cc2)c[nH]1)C(C)(C)C` [Compound L-17], above 100 fold; in that of `COC(=O)N(C)C(C)(C)C(=O)N[C@H](c1nc(-c2ccc(-c3ccc(-c4c[nH]c([C@@H](NC(=O)C(C)(C)N(C)C(=O)OC)C(C)(C)C)n4)cc3)cc2)c[nH]1)C(C)(C)C` [Compound L-18], above 100 fold.

Take `COC(=O)N(C)C1(C(=O)N[C@H](c2nc(-c3ccc(-c4ccc(-c5c[nH]c([C@@H](NC(=O)C6(N(C)C(=O)OC)CC6)C(C)(C)C)n5)cc4)cc3)c[nH]2)C(C)(C)C)CC1.O=C(O)C(F)(F)F.O=C(O)C(F)(F)F` [Compound L-19]: the “Fold-Synergistic 1a (Q30E)” value is above 100 fold. As for `CN(C(=O)OCCF)C(C)(C)C(=O)N[C@H](c1nc(-c2ccc(-c3ccc(-c4c[nH]c([C@@H](NC(=O)C(C)(C)N(C)C(=O)OCCF)C(C)(C)C)n4)cc3)cc2)c[nH]1)C(C)(C)C` [Compound L-20], the “Fold-Synergistic 1a (Q30E)” value is above 100 fold. Then `CC(C)(C)OC(=O)N1CCC(F)(F)C[C@H]1C(=O)N[C@H](c1nc(-c2ccc(-c3ccc(-c4c[nH]c([C@@H](NC(=O)[C@@H]5CC(F)(F)CCN5C(=O)OC(C)(C)C)C(C)(C)C)n4)cc3)cc2)c[nH]1)C(C)(C)C` [Compound L-21], with above 100 fold. Turning to `COC(=O)N(C)C1(C(=O)N[C@H](c2nc(-c3ccc(-c4ccc(-c5c[nH]c([C@@H](NC(=O)C6(N(C)C(=O)OC)CC6)C6CC6)n5)cc4)cc3)c[nH]2)C2CC2)CC1` [Compound L-34], the “Fold-Synergistic 1a (Q30E)” value is recorded as above 100 fold. In the case of `CCN(CC(F)(F)F)C(=O)C(=O)NC(c1nc(-c2ccc(-c3ccc(-c4c[nH]c(C(NC(=O)C(=O)N(CC)CC(F)(F)F)C5CC5)n4)cc3)cc2)c[nH]1)C1CC1` [Compound L-35] it was above 100 fold; in that of `CC(C)N(C(=O)C(=O)NC(c1nc(-c2ccc(-c3ccc(-c4c[nH]c(C(NC(=O)C(=O)N(C(C)C)C5CC5)C5CC5)n4)cc3)cc2)c[nH]1)C1CC1)C1CC1` [Compound L-36], above 100 fold; in that of `O=C(NC(c1nc(-c2ccc(-c3ccc(-c4c[nH]c(C(NC(=O)C(=O)N5CCC(F)(F)CC5)C5CC5)n4)cc3)cc2)c[nH]1)C1CC1)C(=O)N1CCC(F)(F)CC1` [Compound L-37], above 100 fold.

Take `COC(=O)N(C)CC1(C(=O)N[C@H](c2nc(-c3ccc(-c4ccc(-c5c[nH]c([C@@H](NC(=O)C6(CN(C)C(=O)OC)CC6)C(C)(C)C)n5)cc4)cc3)c[nH]2)C(C)(C)C)CC1` [Compound L-41]: the “Fold-Synergistic 1a (Q30E)” value is listed as above 100 fold. Consider `CC(OC(=O)NC1(C(=O)NC(c2nc(-c3ccc(-c4ccc(-c5c[nH]c(C(NC(=O)C6(NC(=O)OC(C)C(F)(F)F)CC6)C6(C)CC6)n5)cc4)cc3)c[nH]2)C2(C)CC2)CC1)C(F)(F)F` [Compound L-42], for which the “Fold-Synergistic 1a (Q30E)” value is above 100 fold. Then `CC1(C(=O)N[C@H](c2nc(-c3ccc(-c4ccc(-c5c[nH]c([C@@H](NC(=O)C6(C)CC6)C(C)(C)C)n5)cc4)cc3)c[nH]2)C(C)(C)C)CC1` [Compound L-45], with above 100 fold; and `CC(C)(C)OC(=O)NC1(C(=O)NC(c2nc(-c3ccc(-c4ccc(-c5c[nH]c(C(NC(=O)C6(NC(=O)OC(C)(C)C)CCC(F)(F)CC6)C(C)(C)C)n5)cc4)cc3)c[nH]2)C(C)(C)C)CCC(F)(F)CC1` [Compound L-49], with above 100 fold.

With `CC(C)(NCC(F)(F)F)C(=O)NC(c1nc(-c2ccc(-c3ccc(-c4c[nH]c(C(NC(=O)C(C)(C)NCC(F)(F)F)C(C)(C)C)n4)cc3)cc2)c[nH]1)C(C)(C)C` [Compound L-50], the “Fold-Synergistic 1a (Q30E)” value is recorded as above 100 fold. With `CC(C)(C)C(NC(=O)C1CCCCN1CC(F)(F)F)c1nc(-c2ccc(-c3ccc(-c4c[nH]c(C(NC(=O)C5CCCCN5CC(F)(F)F)C(C)(C)C)n4)cc3)cc2)c[nH]1` [Compound L-51], the “Fold-Synergistic 1a (Q30E)” value is reported as above 100 fold. With `CC(C)(C)C(NC(=O)C1CCCN1CC(F)(F)F)c1nc(-c2ccc(-c3ccc(-c4c[nH]c(C(NC(=O)C5CCCN5CC(F)(F)F)C(C)(C)C)n4)cc3)cc2)c[nH]1` [Compound L-52], the “Fold-Synergistic 1a (Q30E)” value is given as above 100 fold. With `CC1(C)CC(C(=O)NC(c2nc(-c3ccc(-c4ccc(-c5c[nH]c(C(NC(=O)C6CC(C)(C)C6)C(C)(C)C)n5)cc4)cc3)c[nH]2)C(C)(C)C)C1` [Compound L-53], the “Fold-Synergistic 1a (Q30E)” value is above 100 fold. Regarding `COC1CC(C(=O)NC(c2nc(-c3ccc(-c4ccc(-c5c[nH]c(C(NC(=O)C6CC(OC)C6)C(C)(C)C)n5)cc4)cc3)c[nH]2)C(C)(C)C)C1` [Compound L-54], the “Fold-Synergistic 1a (Q30E)” value is given as above 100 fold. `CC(C)(C)OC(=O)N1C(C(=O)NC(c2nc(-c3ccc(-c4ccc(-c5c[nH]c(C(NC(=O)C6COC(C)(C)N6C(=O)OC(C)(C)C)C(C)(C)C)n5)cc4)cc3)c[nH]2)C(C)(C)C)COC1(C)C` [Compound L-55]: the “Fold-Synergistic 1a (Q30E)” value is reported as above 100 fold.

Consider `CC(C)(CO)C(=O)NC(c1nc(-c2ccc(-c3ccc(-c4c[nH]c(C(NC(=O)C(C)(C)CO)C(C)(C)C)n4)cc3)cc2)c[nH]1)C(C)(C)C` [Compound L-56], for which the “Fold-Synergistic 1a (Q30E)” value is above 100 fold. For `CC(C)(C)OC(=O)N1CC2(CC(C(=O)NC(c3nc(-c4ccc(-c5ccc(-c6c[nH]c(C(NC(=O)C7CC8(C7)CN(C(=O)OC(C)(C)C)C8)C(C)(C)C)n6)cc5)cc4)c[nH]3)C(C)(C)C)C2)C1` [Compound L-57], the “Fold-Synergistic 1a (Q30E)” value is on record as above 100 fold.

On to `CC(C)(C)OC(=O)N1CC(C)(C)OCC1C(=O)NC(c1nc(-c2ccc(-c3ccc(-c4c[nH]c(C(NC(=O)C5COC(C)(C)CN5C(=O)OC(C)(C)C)C(C)(C)C)n4)cc3)cc2)c[nH]1)C(C)(C)C` [Compound L-60], for which the “Fold-Synergistic 1a (Q30E)” value is reported as above 100 fold. As to `CC(C)(C)OC(=O)N1CCOCC1C(=O)NC(c1nc(-c2ccc(-c3ccc(-c4c[nH]c(C(NC(=O)C5COCCN5C(=O)OC(C)(C)C)C(C)(C)C)n4)cc3)cc2)c[nH]1)C(C)(C)C` [Compound L-61], the “Fold-Synergistic 1a (Q30E)” value was above 100 fold. On to `CN(CC(F)(F)F)C(C)(C)C(=O)NC(c1nc(-c2ccc(-c3ccc(-c4c[nH]c(C(NC(=O)C(C)(C)N(C)CC(F)(F)F)C(C)(C)C)n4)cc3)cc2)c[nH]1)C(C)(C)C` [Compound L-62], for which the “Fold-Synergistic 1a (Q30E)” value was above 100 fold. In the case of `CC(C)(C)OC(=O)N1CC(C)(C(=O)NC(c2nc(-c3ccc(-c4ccc(-c5c[nH]c(C(NC(=O)C6(C)CN(C(=O)OC(C)(C)C)C6)C(C)(C)C)n5)cc4)cc3)c[nH]2)C(C)(C)C)C1` [Compound L-63] it was above 100 fold; in that of `CC(C)(C)C(NC(=O)C1CCCO1)c1nc(-c2ccc(-c3ccc(-c4c[nH]c(C(NC(=O)C5CCCO5)C(C)(C)C)n4)cc3)cc2)c[nH]1` [Compound L-64], above 100 fold. For the molecule `CC(C)(C)C(NC(=O)C1CCCO1)c1nc(-c2ccc(-c3ccc(-c4c[nH]c(C(NC(=O)C5CCCO5)C(C)(C)C)n4)cc3)cc2)c[nH]1` [Compound L-65], the “Fold-Synergistic 1a (Q30E)” value was above 100 fold. For the molecule `CC(C)(C)C(NC(=O)C1C2COCC21)c1nc(-c2ccc(-c3ccc(-c4c[nH]c(C(NC(=O)C5C6COCC65)C(C)(C)C)n4)cc3)cc2)c[nH]1` [Compound L-67], the “Fold-Synergistic 1a (Q30E)” value is above 100 fold. As to `CC(C)(C)C(NC(=O)C1COCCN1CC(F)(F)F)c1nc(-c2ccc(-c3ccc(-c4c[nH]c(C(NC(=O)C5COCCN5CC(F)(F)F)C(C)(C)C)n4)cc3)cc2)c[nH]1` [Compound L-68], the “Fold-Synergistic 1a (Q30E)” value is on record as above 100 fold. `CC(C)(C)C(NC(=O)C1(O)CCC1)c1nc(-c2ccc(-c3ccc(-c4c[nH]c(C(NC(=O)C5(O)CCC5)C(C)(C)C)n4)cc3)cc2)c[nH]1` [Compound L-71]: the “Fold-Synergistic 1a (Q30E)” value is above 100 fold.

In the case of `COC(=O)NC(C(=O)NC(c1nc(-c2ccc(-c3ccc(-c4c[nH]c(C(NC(=O)C(NC(=O)OC)C5CC(C)OC(C)C5)C(C)(C)C)n4)cc3)cc2)c[nH]1)C(C)(C)C)C1CC(C)OC(C)C1` [Compound L-72], the “Fold-Synergistic 1a (Q30E)” value is above 10 fold. Turning to `CC(C)(C)C(NC(=O)C1(O)CCCC1)c1nc(-c2ccc(-c3ccc(-c4c[nH]c(C(NC(=O)C5(O)CCCC5)C(C)(C)C)n4)cc3)cc2)c[nH]1` [Compound L-73], the “Fold-Synergistic 1a (Q30E)” value is recorded as above 100 fold. In the case of `CC(C)(C)C(NC(=O)C(O)C1CCCCC1)c1nc(-c2ccc(-c3ccc(-c4c[nH]c(C(NC(=O)C(O)C5CCCCC5)C(C)(C)C)n4)cc3)cc2)c[nH]1` [Compound L-74], the “Fold-Synergistic 1a (Q30E)” value is above 100 fold.

The values above are taken from patent US20160158200A1, “Combinations of Hepatitis C Virus Inhibitors” (priority 2013, published 2016).
